Where two headings read alike, the source gives them in different places.
How the values were obtained:
Assay type in all cases: cell-based
[1] = tested on: PC-3 prostate cancer cells; assay: MTT cytotoxicity assay, PC-3 prostate cancer cells; conditions: 24-36 hours at 37° C.
Description: (§1) Cytotoxicity of various compounds against tumor cells was performed using the MTT (3-[4,5-dimethylthiazol-2-yl]-2,5-diphenyl tetrazolium bromide) assay (Boehringer Mannheim Corp., Indianapolis, Ind.). Unless otherwise specified, all cell lines were obtained from the American Type Culture Collection (ATCC). Briefly, exponentially growing cells were seeded into a 96-well plate at a density of 2.5×10^4 cells/well and incubated for 36 hours at 37° C. prior to drug exposure. On the day of treatment, culture medium was carefully aspirated from the wells and replaced with fresh medium containing WHI-P239 at concentrations ranging from 0.1 to 250 μM. Triplicate wells were used for each treatment.
(§2) Human leukemic cell lines (NALM-6, MOLT-3), human breast tumor cells (BT20), prostate cancer cells (PC3), and glioblastoma cells (U373) were obtained from the American Type Culture Collection and maintained as a continuous cell line in Dulbecco's modified Eagles's medium supplemented with 10% fetal bovine serum and antibiotics.
(§3) The cells were incubated with the various compounds for 24-36 hours at 37° C. in a humidified 5% CO2 atmosphere. To each well, 10 μl of MTT (0.5 mg/ml final concentration) was added and the plates were incubated at 37° C. for 4 hours to allow MTT to form formazan crystals by reacting with metabolically active cells. The formazan crystals were solubilized overnight at 37° C. in a solution containing 10% SDS in 0.01 M HCl. The absorbence of each well was measured in a microplate reader (Labsystems) at 540 nm and a reference wavelength of […]. To translate the OD540 values into the number of live cells in each well, the OD540 values were compared to those on standard OD540 -versus-cell number curves generated for each cell line. The percent survival was calculated using the formula shown below. [formula]

[2] = tested on: BT-20 breast cancer cells; assay: MTT cytotoxicity assay, BT-20 breast cancer cells; conditions: Homo sapiens, 24-36 hours at 37° C.
Description: as §1, §2, §3

U373 glioblastoma cells = assay: MTT cytotoxicity assay, U373 glioblastoma (brain tumor) cells; conditions: Homo sapiens, U373 MG, 24-36 hours at 37° C.
Description: as §1, §2, §3

NALM-6 leukemia cells = assay: MTT cytotoxicity assay, NALM-6 leukemia cells; conditions: Homo sapiens, 24-36 hours at 37° C.
Description: as §1, §2, §3

Structure (SMILES) | IC50 [1] | IC50 [2] | IC50 (U373 glioblastoma cells) | IC50 (NALM-6 leukemia cells; read-out: IC50 NALM-6 Leukemia) | IC50 (NALM-6 leukemia cells; leukemia cells, read-out: IC50 antileukemic potency (unit printed EM))
Oc1ccc(Nc2nc(Nc3ccc(O)cc3)nc(Nc3ccc(O)cc3)n2)cc1 [WHI-P199, 2,4,6-Tri(4'-hydroxylphenyl)-amino-1,3,5-triazine] | 221 µM | 240 µM | > 250 µM | > 250 µM | –
Oc1c(Br)cc(Nc2nc(Nc3cc(Br)c(O)c(Br)c3)nc(Nc3cc(Br)c(O)c(Br)c3)n2)cc1Br [WHI-P200, 2,4,6-Tri(3',5'-dibromo-4'-hydroxylphenyl)-amino-1,3,5-triazine] | 64.5 µM | 27.1 µM | > 250 µM | 10.1 µM | –
Oc1ccccc1Nc1nc(Nc2ccccc2O)nc(Nc2ccccc2O)n1 [WHI-P205, 2,4,6-Tri(2'-hydroxylphenyl)-amino-1,3,5-triazine] | 102 µM | 108 µM | 224 µM | 21.5 µM | –
Brc1cccc(Nc2nc(Nc3cccc(Br)c3)nc(Nc3cccc(Br)c3)n2)c1 [WHI-P206, 2,4,6-Tri(3'-bromophenyl)-amino-1,3,5-triazine] | > 250 µM | > 250 µM | > 250 µM | > 250 µM | –
Oc1c(Cl)cc(Nc2nc(Nc3cc(Cl)c(O)c(Cl)c3)nc(Nc3cc(Cl)c(O)c(Cl)c3)n2)cc1Cl [WHI-P239, 2,4,6-Tri(3',5'-dichloro-4'-hydroxylphenyl)-amino-1,3,5-triazine] | 31.5 µM | 13.2 µM | 155 µM | 9.8 µM | –
Oc1cccc(Nc2nc(Nc3cccc(O)c3)nc(Nc3cccc(O)c3)n2)c1 [WHI-P233, 2,4,6-Tri(3'-hydroxylphenyl)-amino-1,3,5-triazine] | 45.1 µM | 66.1 µM | 104 µM | 5.1 µM | 5.1 µM
